Data reported in ChEMBL document CHEMBL5696441 (Nat Chem Biol, 2011).

Key:
[1] = molecular target: Tyrosine-protein kinase receptor UFO (Homo sapiens) (UniProt P30530); test: Inhibition of AXL (unknown origin) assessed as remaining activity at 1 uM by Kinome scan method relative to control
[2] = molecular target: Bone morphogenetic protein receptor type-2 (Homo sapiens) (UniProt Q13873); test: Inhibition of BMPR2 (unknown origin) assessed as remaining activity at 1 uM by Kinome scan method relative to control
[3] = molecular target: Casein kinase I isoform alpha-like (Homo sapiens) (UniProt Q8N752); test: Inhibition of CSNK1A1L (unknown origin) assessed as remaining activity at 1 uM by Kinome scan method relative to control
[4] = molecular target: Mitogen-activated protein kinase 1 (Homo sapiens) (UniProt P28482); test: Inhibition of ERK2 (unknown origin) assessed as remaining activity at 1 uM by Kinome scan method relative to control
[5] = molecular target: Serine/threonine-protein kinase MAK (Homo sapiens) (UniProt P20794); test: Inhibition of MAK (unknown origin) assessed as remaining activity at 1 uM by Kinome scan method relative to control
[6] = molecular target: Mitogen-activated protein kinase kinase kinase 1 (Homo sapiens) (UniProt Q13233); test: Inhibition of MAP3K1 (unknown origin) assessed as remaining activity at 1 uM by Kinome scan method relative to control
[7] = molecular target: Tyrosine-protein kinase receptor TYRO3 (Homo sapiens) (UniProt Q06418); test: Inhibition of TYRO3 (unknown origin) assessed as remaining activity at 1 uM by Kinome scan method relative to control
[8] = test system: Tyrosine-protein kinase ABL1 (Homo sapiens), P00519 [Y253F]; test: Inhibition of human ABL1 Y253F mutant assessed as residual activity at 1 uM using Poly(Ala,Glu,Lys,Tyr)6:2:5:1 as substrate in presence of 33P-ATP by ProQinase assay relative to control
[9] = molecular target: RAC-beta serine/threonine-protein kinase (Homo sapiens) (UniProt P31751); test: Inhibition of human AKT2 assessed as residual activity at 1 uM using RBER-GSK3(14-27) as substrate in presence of 33P-ATP by ProQinase assay relative to control
[10] = molecular target: CDK2/Cyclin A2 (Homo sapiens) (UniProt P24941+P20248); test: Inhibition of human CDK2/CycA2 assessed as residual activity at 1 uM using RBER-CHKtide as substrate in presence of 33P-ATP by ProQinase assay relative to control; assay type: protein-complex assay
[11] = molecular target: Cyclin-dependent kinase 4/cyclin D1 (Homo sapiens) (UniProt P11802+P24385); test: Inhibition of human CDK4/CyclinD1 assessed as residual activity at 1 uM using RBER-CHKtide as substrate in presence of 33P-ATP by ProQinase assay relative to control; assay type: protein-complex assay
[12] = molecular target: T1, Ephrin type-A receptor 3 (Homo sapiens) (UniProt P29320); test: Inhibition of human EPHA3 assessed as residual activity at 1 uM using polyEY as substrate in presence of 33P-ATP by ProQinase assay relative to control
T1 sequence (whole entry): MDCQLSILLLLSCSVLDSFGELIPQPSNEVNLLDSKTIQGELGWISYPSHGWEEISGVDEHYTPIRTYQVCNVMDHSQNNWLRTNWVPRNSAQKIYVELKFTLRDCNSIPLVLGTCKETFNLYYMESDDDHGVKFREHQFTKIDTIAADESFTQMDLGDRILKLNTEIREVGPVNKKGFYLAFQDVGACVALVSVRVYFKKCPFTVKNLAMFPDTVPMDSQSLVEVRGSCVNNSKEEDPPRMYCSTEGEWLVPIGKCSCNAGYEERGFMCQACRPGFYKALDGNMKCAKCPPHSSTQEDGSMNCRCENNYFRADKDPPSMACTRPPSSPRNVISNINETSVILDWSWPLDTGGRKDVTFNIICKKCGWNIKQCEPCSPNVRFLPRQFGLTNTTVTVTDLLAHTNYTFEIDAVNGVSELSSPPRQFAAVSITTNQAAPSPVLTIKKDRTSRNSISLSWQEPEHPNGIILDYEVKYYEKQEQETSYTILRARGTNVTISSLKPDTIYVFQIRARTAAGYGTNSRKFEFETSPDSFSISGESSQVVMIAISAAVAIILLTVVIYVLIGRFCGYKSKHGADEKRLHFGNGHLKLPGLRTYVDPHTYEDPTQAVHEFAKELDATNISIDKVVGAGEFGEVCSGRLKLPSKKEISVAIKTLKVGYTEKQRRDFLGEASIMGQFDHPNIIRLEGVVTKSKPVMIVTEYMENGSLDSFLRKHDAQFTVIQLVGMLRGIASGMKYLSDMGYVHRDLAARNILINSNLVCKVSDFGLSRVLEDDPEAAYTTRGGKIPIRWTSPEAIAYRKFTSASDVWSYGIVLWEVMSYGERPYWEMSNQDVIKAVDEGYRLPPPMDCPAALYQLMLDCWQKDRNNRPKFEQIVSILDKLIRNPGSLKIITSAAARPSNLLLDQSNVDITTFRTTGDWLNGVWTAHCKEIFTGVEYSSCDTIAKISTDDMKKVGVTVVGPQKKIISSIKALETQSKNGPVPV

[13] = molecular target: Tyrosine-protein kinase HCK (Homo sapiens) (UniProt P08631); test: Inhibition of human HCK assessed as residual activity at 1 uM using polyEY as substrate in presence of 33P-ATP by ProQinase assay relative to control
[14] = molecular target: Serine/threonine-protein kinase PAK 6 (Homo sapiens) (UniProt Q9NQU5); test: Inhibition of human PAK6 assessed as residual activity at 1 uM using bio-4xCHKT as substrate in presence of 33P-ATP by ProQinase assay relative to control
[15] = molecular target: Protein kinase C eta type (Homo sapiens) (UniProt P24723); test: Inhibition of human PKCeta assessed as residual activity at 1 uM using histon H2B as substrate in presence of 33P-ATP by ProQinase assay relative to control
[16] = molecular target: Serine/threonine-protein kinase N1 (Homo sapiens) (UniProt Q16512); test: Inhibition of human PRK1 assessed as residual activity at 1 uM using RBER-CHKtide as substrate in presence of 33P-ATP by ProQinase assay relative to control
[17] = molecular target: Macrophage-stimulating protein receptor (Homo sapiens) (UniProt Q04912); test: Inhibition of human RON assessed as residual activity at 1 uM using polyEY as substrate in presence of 33P-ATP by ProQinase assay relative to control
[18] = molecular target: Angiopoietin-1 receptor (Homo sapiens) (UniProt Q02763); test: Inhibition of human TIE2 assessed as residual activity at 1 uM using polyEY as substrate in presence of 33P-ATP by ProQinase assay relative to control
[19] = molecular target: Mitogen-activated protein kinase kinase kinase 20 (Homo sapiens) (UniProt Q9NYL2); test: Inhibition of human ZAK assessed as residual activity at 1 uM using MBP as substrate in presence of 33P-ATP by ProQinase assay relative to control
[20] = Anti-inflammatory activity against human derived medium respond PBMC cells assessed as inhibition in stimulated IL-13 cytokine release incubated for 2 hrs in the presence of LPS/SEB/aCD28 by Luminex based sandwich immunoassay; assay type: functional, cell-based

Chain of Protein kinase C eta type (Homo sapiens) (P24723 whole entry): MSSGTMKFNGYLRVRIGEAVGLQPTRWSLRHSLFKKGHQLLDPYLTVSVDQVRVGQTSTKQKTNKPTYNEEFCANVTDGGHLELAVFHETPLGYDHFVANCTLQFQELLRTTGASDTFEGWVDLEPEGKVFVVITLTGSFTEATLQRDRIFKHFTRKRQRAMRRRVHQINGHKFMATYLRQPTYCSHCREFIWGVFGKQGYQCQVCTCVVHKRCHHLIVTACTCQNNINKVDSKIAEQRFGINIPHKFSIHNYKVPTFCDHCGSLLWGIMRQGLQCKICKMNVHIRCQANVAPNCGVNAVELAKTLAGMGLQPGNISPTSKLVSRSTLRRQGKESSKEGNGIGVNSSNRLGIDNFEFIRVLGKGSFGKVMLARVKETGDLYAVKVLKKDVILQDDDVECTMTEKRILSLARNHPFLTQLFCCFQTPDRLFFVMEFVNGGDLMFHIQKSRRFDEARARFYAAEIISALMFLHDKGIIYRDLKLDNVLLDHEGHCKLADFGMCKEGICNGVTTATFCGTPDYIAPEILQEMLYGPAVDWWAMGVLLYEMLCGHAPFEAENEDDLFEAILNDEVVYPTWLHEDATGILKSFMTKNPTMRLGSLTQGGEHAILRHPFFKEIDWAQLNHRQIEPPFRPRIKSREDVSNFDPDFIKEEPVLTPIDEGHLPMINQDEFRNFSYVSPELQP
Chain of Serine/threonine-protein kinase N1 (Homo sapiens) (Q16512 2-942 limits assumed): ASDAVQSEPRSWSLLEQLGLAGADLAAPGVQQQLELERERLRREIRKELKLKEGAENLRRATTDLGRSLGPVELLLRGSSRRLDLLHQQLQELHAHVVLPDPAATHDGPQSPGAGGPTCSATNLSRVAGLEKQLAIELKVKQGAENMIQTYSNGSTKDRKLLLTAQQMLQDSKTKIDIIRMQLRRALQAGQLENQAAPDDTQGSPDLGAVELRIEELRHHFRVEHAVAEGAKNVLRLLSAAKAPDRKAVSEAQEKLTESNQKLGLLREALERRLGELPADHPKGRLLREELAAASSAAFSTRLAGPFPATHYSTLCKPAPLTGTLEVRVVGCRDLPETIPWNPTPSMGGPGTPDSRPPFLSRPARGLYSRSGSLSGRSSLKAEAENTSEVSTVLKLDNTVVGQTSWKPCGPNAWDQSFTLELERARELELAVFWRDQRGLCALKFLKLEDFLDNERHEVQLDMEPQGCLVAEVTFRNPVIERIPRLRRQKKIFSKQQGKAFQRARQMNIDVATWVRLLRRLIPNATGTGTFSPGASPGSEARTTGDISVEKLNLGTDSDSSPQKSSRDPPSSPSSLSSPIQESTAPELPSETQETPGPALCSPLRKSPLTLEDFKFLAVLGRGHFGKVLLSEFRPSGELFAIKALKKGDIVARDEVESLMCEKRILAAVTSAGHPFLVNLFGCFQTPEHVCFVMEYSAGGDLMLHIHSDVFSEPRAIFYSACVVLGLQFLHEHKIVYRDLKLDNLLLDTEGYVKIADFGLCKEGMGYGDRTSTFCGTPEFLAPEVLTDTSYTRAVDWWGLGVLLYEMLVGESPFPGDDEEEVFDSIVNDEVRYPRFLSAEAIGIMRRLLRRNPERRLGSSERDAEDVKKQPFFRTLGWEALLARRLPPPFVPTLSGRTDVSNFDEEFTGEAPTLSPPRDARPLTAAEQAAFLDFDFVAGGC
Chain of Serine/threonine-protein kinase MAK (Homo sapiens) (P20794 whole entry): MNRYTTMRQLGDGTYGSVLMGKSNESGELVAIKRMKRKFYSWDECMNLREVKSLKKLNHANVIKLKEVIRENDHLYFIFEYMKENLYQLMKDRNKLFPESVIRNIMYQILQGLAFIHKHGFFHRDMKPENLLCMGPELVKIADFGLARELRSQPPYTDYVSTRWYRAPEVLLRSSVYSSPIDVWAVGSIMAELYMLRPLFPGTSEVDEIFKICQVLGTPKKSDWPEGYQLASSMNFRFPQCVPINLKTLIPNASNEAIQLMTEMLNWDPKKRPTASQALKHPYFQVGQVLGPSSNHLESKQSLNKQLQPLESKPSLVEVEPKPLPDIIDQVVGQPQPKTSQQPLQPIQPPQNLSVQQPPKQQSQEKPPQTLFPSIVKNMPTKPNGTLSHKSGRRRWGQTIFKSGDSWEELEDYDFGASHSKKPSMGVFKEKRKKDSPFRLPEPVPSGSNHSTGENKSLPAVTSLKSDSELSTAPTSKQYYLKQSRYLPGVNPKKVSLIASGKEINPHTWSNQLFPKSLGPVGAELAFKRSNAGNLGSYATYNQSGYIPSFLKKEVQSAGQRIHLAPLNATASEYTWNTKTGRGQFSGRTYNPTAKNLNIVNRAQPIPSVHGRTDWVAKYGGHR
Chain of Mitogen-activated protein kinase kinase kinase 20 (Homo sapiens) (Q9NYL2 2-800 limits assumed): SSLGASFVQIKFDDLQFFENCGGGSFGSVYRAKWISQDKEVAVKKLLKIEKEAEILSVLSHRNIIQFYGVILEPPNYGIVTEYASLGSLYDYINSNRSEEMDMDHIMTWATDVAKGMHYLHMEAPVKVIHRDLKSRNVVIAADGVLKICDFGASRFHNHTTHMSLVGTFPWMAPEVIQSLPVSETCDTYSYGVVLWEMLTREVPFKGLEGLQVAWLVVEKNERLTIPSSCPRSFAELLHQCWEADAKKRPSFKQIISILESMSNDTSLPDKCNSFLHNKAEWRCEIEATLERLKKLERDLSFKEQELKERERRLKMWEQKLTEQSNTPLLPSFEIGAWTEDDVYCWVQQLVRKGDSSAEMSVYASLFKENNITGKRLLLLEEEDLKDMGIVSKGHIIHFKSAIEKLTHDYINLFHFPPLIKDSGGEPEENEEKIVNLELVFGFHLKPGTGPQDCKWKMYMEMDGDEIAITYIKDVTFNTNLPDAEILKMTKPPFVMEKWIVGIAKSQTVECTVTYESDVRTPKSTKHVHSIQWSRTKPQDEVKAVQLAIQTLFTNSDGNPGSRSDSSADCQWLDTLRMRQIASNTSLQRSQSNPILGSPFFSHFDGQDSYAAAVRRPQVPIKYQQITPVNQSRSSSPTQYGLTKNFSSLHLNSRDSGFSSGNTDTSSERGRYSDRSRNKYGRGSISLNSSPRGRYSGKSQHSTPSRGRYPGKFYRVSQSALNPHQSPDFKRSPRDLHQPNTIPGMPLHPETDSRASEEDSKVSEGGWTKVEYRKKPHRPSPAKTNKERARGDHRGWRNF
Chain of Macrophage-stimulating protein receptor (Homo sapiens) (Q04912 25-304 limits assumed): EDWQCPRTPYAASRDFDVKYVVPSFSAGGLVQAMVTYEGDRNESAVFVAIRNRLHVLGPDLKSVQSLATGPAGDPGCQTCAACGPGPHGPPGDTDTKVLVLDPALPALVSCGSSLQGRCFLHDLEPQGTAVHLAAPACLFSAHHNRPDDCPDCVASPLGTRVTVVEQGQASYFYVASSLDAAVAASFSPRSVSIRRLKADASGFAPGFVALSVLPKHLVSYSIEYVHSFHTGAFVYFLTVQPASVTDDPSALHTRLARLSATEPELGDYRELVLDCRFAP
Chain of Macrophage-stimulating protein receptor (Homo sapiens) (Q04912 310-1400 limits assumed): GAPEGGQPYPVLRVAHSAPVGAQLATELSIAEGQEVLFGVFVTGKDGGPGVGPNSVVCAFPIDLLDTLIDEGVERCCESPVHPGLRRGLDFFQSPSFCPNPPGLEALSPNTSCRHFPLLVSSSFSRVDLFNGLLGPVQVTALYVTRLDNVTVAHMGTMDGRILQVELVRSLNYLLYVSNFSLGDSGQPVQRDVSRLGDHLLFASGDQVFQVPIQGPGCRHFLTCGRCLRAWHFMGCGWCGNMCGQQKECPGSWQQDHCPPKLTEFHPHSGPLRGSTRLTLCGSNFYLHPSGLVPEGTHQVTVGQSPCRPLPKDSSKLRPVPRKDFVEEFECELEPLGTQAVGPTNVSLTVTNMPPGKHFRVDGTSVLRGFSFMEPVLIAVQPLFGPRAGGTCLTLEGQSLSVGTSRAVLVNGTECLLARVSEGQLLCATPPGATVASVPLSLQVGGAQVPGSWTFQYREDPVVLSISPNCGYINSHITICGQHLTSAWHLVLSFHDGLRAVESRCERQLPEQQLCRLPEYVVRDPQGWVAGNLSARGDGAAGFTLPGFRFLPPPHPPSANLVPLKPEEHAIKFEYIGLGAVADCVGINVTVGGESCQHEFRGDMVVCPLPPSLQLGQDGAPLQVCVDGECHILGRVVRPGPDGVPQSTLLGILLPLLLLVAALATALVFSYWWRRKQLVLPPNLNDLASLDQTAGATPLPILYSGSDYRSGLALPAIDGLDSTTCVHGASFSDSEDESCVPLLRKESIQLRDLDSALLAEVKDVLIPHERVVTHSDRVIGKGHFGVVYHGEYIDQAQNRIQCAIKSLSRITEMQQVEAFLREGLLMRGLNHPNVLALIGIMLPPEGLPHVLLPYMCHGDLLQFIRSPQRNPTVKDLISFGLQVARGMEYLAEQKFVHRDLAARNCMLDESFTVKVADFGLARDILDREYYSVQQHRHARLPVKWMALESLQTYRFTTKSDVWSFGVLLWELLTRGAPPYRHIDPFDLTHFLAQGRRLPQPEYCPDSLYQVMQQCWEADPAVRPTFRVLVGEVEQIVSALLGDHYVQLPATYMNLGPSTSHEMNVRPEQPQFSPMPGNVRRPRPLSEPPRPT
Chain of Casein kinase I isoform alpha-like (Homo sapiens) (Q8N752 whole entry, canonical isoform): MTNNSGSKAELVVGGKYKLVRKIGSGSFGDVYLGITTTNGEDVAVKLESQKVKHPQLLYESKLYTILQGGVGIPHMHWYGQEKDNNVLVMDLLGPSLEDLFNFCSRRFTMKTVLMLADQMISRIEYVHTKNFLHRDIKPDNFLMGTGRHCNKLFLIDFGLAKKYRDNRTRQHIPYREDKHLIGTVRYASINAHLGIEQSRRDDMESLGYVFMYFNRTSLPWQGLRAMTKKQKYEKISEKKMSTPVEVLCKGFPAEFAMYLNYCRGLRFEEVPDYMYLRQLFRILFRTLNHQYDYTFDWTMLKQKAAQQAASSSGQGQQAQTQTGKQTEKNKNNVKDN

SMILES: O=C1c2ccc(Nc3ccc(F)cc3F)cc2CCc2ccc(OC[C@H](O)CO)cc21 [Skepinone-L]
- Activity [1]: 94%
- Activity [2]: 100%
- Activity [3]: 98%
- Activity [4]: 100%
- Activity [5]: 84%
- Activity [6]: 100%
- Activity [7]: 100%
- Activity [8]: 88%
- Activity [9]: 121%
- Activity [10]: 101%
- Activity [11]: 92%
- Activity [12]: 107%
- Activity [13]: 98%
- Activity [14]: 101%
- Activity [15]: 97%
- Activity [16]: 92%
- Activity [17]: 56%
- Activity [18]: 98%
- Activity [19]: 98%
- IC50 [20]: 4.38 µM
